In patent US10342796B2, “Acrylanilide derivative, preparation method, and applications thereof in pharmacy” (Ancureall Pharmaceutical (Shanghai) Co., Ltd., priority 2015, dated 2019):
Like-named read-outs stand apart in the source and are kept apart here.

Experiments:
Assay in all cases: Growth inhibition GI50 in vitro (CCK8/MTT, 72 h)
Format in all cases: cell-based, human
[1] = tested on: H1975 (EGFR L858R/T790M); settings: Homo sapiens, NCI-H1975
Procedure: (§1) PC-9ER is an acquired Erlotinib resistance cell line of PC-9 cells developed by the investor. […] The four cell lines above were cultured with 1×RPMI1640 complete medium (supplement with 10% FBS). Human colon cancer cell line SW48 (EGFR G719S positive, ATCC). was cultured with L15 complete medium (10% FB S).
(§2) The suspension cells were collected by centrifugation. The supernatant was discard and the cell pellet was resuspended and counted. Different cell concentrations (5˜10×10^4 cells/mL) were prepared according to the growth cycle of each cell line and then seeded on a 96-well plate (Corning), 100 μL/well. The cells were incubated over night at 37° C., 5% CO2. The compounds were added to the cells on the second day with 2 wells in parallel. The final concentration of organic solvent shall not exceed 1%. The cells were continually incubated for 72 h, and then subjected to MTT assay.
(§3) The present compounds and the reference compounds were dissolved with DMSO (Sigma), respectively. […] The storage concentration of compounds was 10 mM and kept at −20° C. They were diluted by 2 times or 10 times with serial dilution before using.
(§4) Dojindo CCK8 reagent kit was used as MTT assay. […] FC meter was used as microplate reader.
(§5) Adherent cell culture medium was discard and immediately replaced with fresh prepared medium which contains 10% CCK8 reagent (100 μL/well). For the suspension cells, CCK8 was directly added to 10% of the final concentration. The cells were continually incubated for 1˜4 h. When the color of control wells turned to dark yellow, the absorption value was measured at OD450 nm. The cell growth rate was calculated according to the following formula: cell growth rate (%)=100*(T−T0)/(C−T0), T=optical density of drug treatment cell well—optical density of blank control well; T0=optical density of cell well before drug treatment—optical density of blank control well; C=optical density of cell well of solvent control group—optical density of blank control well. […] The experiment was independently repeated 1˜3 times, and subject to biological statistical analysis.

[2] = tested on: HCC827 (EGFR dE746-A750); settings: Homo sapiens, HCC827; EGFR mutant cell line; range of GI50; read-out: GI50 HCC827
Procedure: as §1, §2, §3, §4, §5

[3] = tested on: PC-9 (EGFR dE746-A750); settings: Homo sapiens
Procedure: as §1, §2, §3, §4, §5

[4] = tested on: PC-9ER (EGFR delE746-A750/T790M); settings: Homo sapiens, PC-9/ER; EGFR mutant cell line; range of GI50; read-out: GI50 PC9ER
Procedure: as §1, §2, §3, §4, §5

[5] = tested on: N87 (HER2 Amp); settings: Homo sapiens
[6] = tested on: AU565 (Her2 amp); settings: Homo sapiens, AU565; HER2 positive cell line; range of GI50; read-out: GI50 AU-565
[7] = tested on: SK-BR-3 (Her2 amp); settings: Homo sapiens, SK-BR-3; HER2 positive cell line; range of GI50; read-out: GI50 SK-BR-3
Procedure: Human lung adenocarcinoma cell line Calu-3 (ATCC) was cultured with 1×MEM complete medium (10% FBS, 1% double-antibiotics, 1% NEAA (Gibco), 2 mM glutamine and 1 mM of sodium pyruvate). Human breast cancer cell line SK-BR-3 was cultured with McCOY'S5A complete medium (10% FBS). Human colon cancer cell line SNU1040 (HER2 V777M positive) (ATCC) and human bronchoalveolar adenocarcinoma cell line NCI-H1781 (expressing HER2 exon 20 G776VC mutation) (ATCC) were cultured with 1×RPMI1640 complete medium (10% FBS), respectively.
as §2, §3, §4, §5

[8] = tested on: A431 (EGFR WT, amplification and high expression); settings: Homo sapiens, A-431; EGFR wild type cell line; range of GI50; read-out: GI50 A431
Description: (§6) EGFR wild type cell lines: human epidermal cancer cell line A431 (EGFR WT, amplification and high expression, from Shanghai Cell Bank of Chinese Academy of Sciences and ATCC), NSCLC cell lines NCI-H460 (EGFR WT, Kras G61H and PI3KCA E545K mutants, ATCC) and NCI-H1299 (EGFR WT, ATCC), melanoma cell line A375 (EGFR WT and BRAF V600E mutant, from Shanghai Cell Bank of Chinese Academy of Sciences, ATCC), human lung cancer cell line NCI-H292 (EGFR WT, from human lung mucoepidermoid carcinoma/lymphatic metastasis, purchased from Shanghai Cell Bank of Chinese Academy of Sciences) were cultured with 1×RPMI1640 complete medium which was supplement with 10% FBS. NSCLC cell line A549 (EGFR WT and Kras G12S mutant, from Shanghai Cell Bank of Chinese Academy of Sciences) was cultured with 1×Ham'S F12K complete medium which was supplement with 10% FBS, 1% double-antibiotics and 2 mM glutamine.
as §2, §3, §4, §5

[9] = tested on: A549 (EGFR WT); settings: Homo sapiens, A549
Description: as §6, §2, §3, §4, §5

[10] = tested on: H1299 (EGFR wt, Nras Q61K); settings: Homo sapiens, NCI-H1299; EGFR wild type cell line; range of GI50; read-out: GI50 H1299
Description: as §6, §2, §3, §4, §5

[11] = tested on: H460 (EGFR wt, Kras G61H); settings: Homo sapiens, NCI-H460; EGFR wild type cell line; range of GI50; read-out: GI50 H460
Description: as §6, §2, §3, §4, §5

[12] = EGFR mutant cell line, range of GI50, read-out: GI50 H1975
[13] = EGFR mutant cell line, range of GI50, read-out: GI50 PC-9
[14] = HER2 positive cell line, range of GI50, read-out: GI50 N87
[15] = EGFR wild type cell line, range of GI50, read-out: GI50 A549

SMILES | GI50 [1, 12] [nM] | GI50 [2] [nM] | GI50 [3, 13] [nM] | GI50 [4] [nM] | GI50 [7] [nM] | GI50 [8] [nM] | GI50 [9, 15] [nM] | GI50 [10] [nM] | GI50 [11] [nM] | GI50 ([1]; Table 13, 72 h, read-out: Range of GI50 H1975 (EGFR L858R/T790M)) [nM] | GI50 ([3]; Table 13, 72 h, read-out: Range of GI50 PC-9 (EGFR dE746-A750)) [nM] | GI50 ([9]; Table 13, 72 h, read-out: Range of GI50 A549 (EGFR WT)) [nM] | GI50 [5, 14] [nM] | GI50 [6] [nM] | GI50 ([5]; Table 13, 72 h, read-out: Range of GI50 N87 (HER2 Amp)) [nM]
C=CC(=O)Nc1cc(Nc2cc(-c3cn(C)c4ccccc34)ncn2)c(OC)cc1N1CCN(CCN2CCCC2)CC1 [Compound 165, N-(4-methoxyl-5-(6-(1-methyl-1H-indol-3-yl)-pyrimidin-4-ylamino)-2-(4-(2-(pyrrolidin-1-yl)-ethyl)-piperazin-1-yl)-phenyl)-acrylamide] | 100 to 1000 | 10 to 100 | < 10 | 10 to 100 | 100 to 1000 | 10 to 100 | > 1000 | > 1000 | > 1000 | – | – | – | 100 to 1000 | 100 to 1000 | –
C=CC(=O)Nc1cc(Nc2cc(-c3cn(C)c4ccccc34)ncn2)c(OC)cc1N(C)CCN1CCCC1 [Compound 178, N-(4-methoxyl-5-(6-(1-methyl-1H-indol-3-yl)-pyrimidin-4-ylamino)-2-(methyl-(2-pyrrolidin-1-yl-ethyl)-amino)-phenyl)-acrylamide] | 10 to 100 | < 10 | < 10 | 10 to 100 | 100 to 1000 | 100 to 1000 | > 1000 | > 1000 | > 1000 | – | – | – | 10 to 100 | 100 to 1000 | –
C=CC(=O)Nc1cc(Nc2cc(-c3cn(CCC)c4ccccc34)ncn2)c(OC)cc1N(C)CCN(C)C [Compound 182] | 10 to 100 | 10 to 100 | 10 to 100 | 10 to 100 | 10 to 100 | 100 to 1000 | > 1000 | > 1000 | > 1000 | – | – | – | 100 to 1000 | 10 to 100 | –
C=CC(=O)Nc1cc(Nc2ncnc(Nc3cccc(Br)c3)n2)c(OC)cc1N1CCC(N2CCCCC2)CC1 [Compound 119, N-{2-[1,4′]-piperidin-1′-yl-5-[4-(3-bromo-phenylamino)-[1,3,5]triazin-2-amino]-4-methoxyl-phenyl}-acrylamide] | < 10 | < 10 | < 10 | – | 10 to 100 | 100 to 1000 | – | – | – | – | – | – | < 10 | < 10 | –
C=CC(=O)Nc1cc(Nc2ncnc(Nc3cccc(Br)c3)n2)c(OC)cc1N1CCCN(C)CC1 [Compound 130, N-[5-[4-(3-bromo-phenylamino)-[1,3,5]triazin-2-ylamino]-4-methoxyl-2-(4-methyl-[1,4]diazepane-1-yl)-phenyl]-acrylamide] | 10 to 100 | < 10 | 10 to 100 | – | 10 to 100 | 100 to 1000 | – | – | – | – | – | – | < 10 | < 10 | –
C=CC(=O)Nc1cc(Nc2cc(Nc3ccc(OC)c(C(F)(F)F)c3)ncn2)c(OC)cc1N(C)CCN(C)C [Compound 222, N-(5-(6-(4-methoxyl-3-trifluoromethyl-phenylamino)-pyrimidin-4-yl-amino)-2-((2-dimethylamino-ethyl)-methyl-amino)-4-methoxyl-phenyl)-acrylamide] | – | – | – | – | – | – | – | – | – | 10 to 100 | < 10 | > 1000 | – | – | 10 to 100

Second part, led by results:

GI50 [1, 12] [nM] | GI50 [2] [nM] | GI50 [3, 13] [nM] | GI50 [4] [nM] | GI50 [7] [nM] | GI50 [8] [nM] | GI50 [9, 15] [nM] | GI50 [10] [nM] | GI50 [11] [nM] | GI50 ([1]; Table 13, 72 h, read-out: Range of GI50 H1975 (EGFR L858R/T790M)) [nM] | GI50 ([3]; Table 13, 72 h, read-out: Range of GI50 PC-9 (EGFR dE746-A750)) [nM] | GI50 ([9]; Table 13, 72 h, read-out: Range of GI50 A549 (EGFR WT)) [nM] | SMILES | GI50 [5, 14] [nM] | GI50 [6] [nM] | GI50 ([5]; Table 13, 72 h, read-out: Range of GI50 N87 (HER2 Amp)) [nM]
10 to 100 | 10 to 100 | 10 to 100 | < 10 | 100 to 1000 | 100 to 1000 | > 1000 | > 1000 | > 1000 | – | – | – | C=CC(=O)Nc1cc(Nc2nccc(N3CCc4ccccc43)n2)c(OC)cc1N(C)CCN(C)C [Compound 31] | 100 to 1000 | 100 to 1000 | –
10 to 100 | 10 to 100 | 10 to 100 | 10 to 100 | 10 to 100 | 100 to 1000 | > 1000 | > 1000 | > 1000 | – | – | – | C=CC(=O)Nc1cc(Nc2nccc(Nc3ccc(F)c(Cl)c3)n2)c(OC)cc1N(C)CCN(C)C [Compound 13, N-(5-(4-(3-chloro-4-fluorophenyl-amino)-pyrimidin-2-ylamino)-2-(2-(dimethylamino-ethyl)-methyl-amino)-4-methoxyl-phenyl)-acrylamide] | 10 to 100 | 10 to 100 | –
100 to 1000 | 10 to 100 | 10 to 100 | 100 to 1000 | 100 to 1000 | > 1000 | > 1000 | > 1000 | > 1000 | – | – | – | C=CC(=O)Nc1cc(Nc2nccc(Nc3cccc(Cl)c3F)n2)c(OC)cc1N(C)CCN(C)C [Compound 14, N-(5-(4-(3-chloro-2-fluorophenyl-amino)-pyrimidin-2-ylamino)-2-(2-(dimethylamino-ethyl)-methyl-amino)-4-methoxyl-phenyl)-acrylamide] | 100 to 1000 | 100 to 1000 | –
10 to 100 | < 10 | < 10 | < 10 | 10 to 100 | 100 to 1000 | > 1000 | > 1000 | > 1000 | – | – | – | C=CC(=O)Nc1cc(Nc2ncnc(Nc3cccc(Cl)c3F)n2)c(OC)cc1N(C)CCN(C)C [Compound 110, N-(5-(4-(3-chloro-2-fluoro-phenylamino)-[1,3,5]triazin-2-ylamino)-2-((2-dimethylamino-ethyl)-methyl-amino)-4-methoxyl-phenyl)-acrylamide] | < 10 | 10 to 100 | –
< 10 | < 10 | < 10 | < 10 | < 10 | 10 to 100 | > 1000 | > 1000 | > 1000 | – | – | – | C=CC(=O)Nc1cc(Nc2cc(Nc3cccc(Br)c3)ncn2)c(OC)cc1N(C)CCN(C)C [Compound 133, N-(5-(6-(3-bromophenylamino)-pyrimidin-4-ylamino)-2-((2-dimethylamino-ethyl)-methyl-amino)-4-methoxyl-phenyl)-acrylamide] | < 10 | < 10 | –
